Test results from patent US20030229007A1, “Form of human renin and its use as a target in treatments for cardiac ischemia and arrhythmia” (priority 2002, published 2003).
Counter-ions that a name gives are not always drawn. Square brackets hold non-standard residues; d marks the D form. Peptide text beside a SMILES is read from it. * marks the point of attachment. Sta = CC(C)C[C@H](N)[C@@H](O)CC(=O)O; Isovaleryl = CC(C)CC(=O)*

Key:
[1] = system: human cardiac synaptosomes (sympathetic nerve endings); assay: Ischemic NE release from synaptosomes isolated from human right atrium; assay type: cell-based; conditions: 70 min ischemia
Description: (§1) Preparation of cardiac synaptosomes. Atrial specimens were freed from fat and connective tissue and minced in ice-cold 0.32 M sucrose containing 1 mM EGTA, pH 7.4, and 1 mM pargyline, to prevent enzymatic destruction of synaptosomal NE. Synaptosomes were isolated as previously described (Imamura et al., Circ. Res. 1995, 77:206-210). Briefly, minced tissue was digested with 120 mg collagenase (Type II, Worthington Biochemicals, Freehold, N.J.) per gm wet heart weight for 1 hr at 37° C. After low speed centrifugation (10 min at 120 g), the resulting pellet was suspended in 10 vol of 0.32 M sucrose and homogenized with a Teflon/glass homogenizer. The homogenate was spun at 650 g for 10 min and the pellet rehomogenized and respun. The pellet containing cellular debris was discarded, and the supernatants from the last two spins were combined and equally subdivided into 4 to 8 tubes and recentrifuged for 20 min at 20,000 g at 4° C. This pellet, which contained cardiac synaptosomes, was resuspended either in HEPES-buffered saline (HBS; 500 μl, normoxic conditions) or in glucose-free HBS which contained the reducing agent sodium dithionite (500 μl, ischemic conditions), and incubated in the absence or presence of angiotensinogen (for 1 hour) or other pharmacological agents for 20 min in a water bath at 37° C. prior to ischemia (see below). HBS contained 50 mM HEPES, pH 7.4, 144 mM NaCl, 5 mM KCl, 1.2 mM CaCl2, 1.2 mM MgCl2, 10 mM glucose. Each suspension functioned as an independent sample and was used only once. In every experiment, one sample was untreated (control, basal NE release).
Induction of ischemia. Ischemia was induced by incubating either atrial fragments or synaptosomes for 70 min in glucose-free KHS (atrial tissue) or HBS (synaptosomes) bubbled with 95% N2 and 5% CO2, containing the reducing agent sodium dithionite (3 mM; PO2 ˜0 mm Hg, pH ˜7.3; ischemic NE release) (Hatta et al. J. Pharmacol Exp. Ther. 1997, 283:494-500). Matched control fragments and synaptosomes were incubated for an equivalent length of time with oxygenated KHS and HBS, respectively (normoxic NE release). When drugs were used, they were continued throughout the entire normoxic and ischemic periods.
Norepinephrine assay. Incubating media were assayed for NE by high pressure liquid chromatography with electrochemical detection (Hatta et al. J. Pharmacol Exp. Ther. 1997, 283:494-500). Perchloric acid and EDTA were added to samples to achieve final concentrations of 0.01 N and 0.025%, respectively. The NE present in the effluent was adsorbed on acid-washed alumina adjusted at pH 8.6 with Tris-2% EDTA buffer, and then extracted into 150 μl of 0.1 N perchloric acid. These final sample aliquots were injected onto a 3 μm ODS reverse-phase column (3.2×100 mm, Bioanalytical System, West Lafayette, Ind.) with an applied potential of 0.65 V. The mobile phase consisted of monochloroacetic acid (75 mM), sodium EDTA (0.5 mM), sodium octylsulfate (0.5 mM) and acetonitrile (1.5%) at pH 3.0. The flow rate was 1.0 ml/min. No NE breakdown occurred during the 70-min ischemic period. Dihydroxybenzylamine was added to each sample as an internal standard prior to alumina extraction and used for calculation of the recovery during the extraction procedure. This recovery was 77% or better. The detection limit was approximately 0.2 pmol.

[2] = system: human cardiac synaptosomes (sympathetic nerve endings); assay: Ischemic NE release from human cardiac synaptosomes incubated with angiotensinogen; assay type: cell-based; conditions: for effect on angiotensinogen-induced increase in ischemic NE release: angiotensinogen 400 nM
Description: as §1
Induction of ischemia. Ischemia was induced by incubating either atrial fragments or synaptosomes for 70 min in glucose-free KHS (atrial tissue) or HBS (synaptosomes) bubbled with 95% N2 and 5% CO2, containing the reducing agent sodium dithionite (3 mM; PO2 ˜0 mm Hg, pH ˜7.3; ischemic NE release) (Hatta et al. J. Pharmacol Exp. Ther. 1997, 283:494-500). […]

[3] = system: human right atrial tissue; assay: NE release from human right atrium incubated in ischemic conditions; assay type: cell-based; conditions: 70 min ischemia
Source text: Source of human cardiac tissue. Specimens of right atrium (i.e., surgical waste tissue) were obtained from 34 patients undergoing cardiopulmonary bypass [29 males and 5 females, age 64.9±1.6 years; coronary artery bypass grafting (CABG) 30, valve replacement 4], following a protocol approved by the Institutional Review Board. Eight of the 30 CABG patients were chronically treated with β-adrenoceptor blocking agents. […] All patients chronically treated with ACE inhibitors were excluded from the study. At the time of surgery, a piece of atrial appendage measuring ˜1 cm^3 was removed from the atriotomy site.
Incubation of atrial tissue. Atrial specimens were immediately transported to the laboratory in ice-cold oxygenated Krebs-Henseleit solution (KHS) of the following composition (mM): NaCl 118.2, KCl 4.83, CaCl2 2.5, MgSO4 2.37, KH2PO4 1.0, NaHCO3 25, and glucose 11.1. After removal of fat and connective tissue, specimens were divided into several fragments (each weighing 24.5±1.1 mg, wet weight, measured at the end of incubation). Each fragment was incubated for 15 min at 37° C. in 2 ml of KHS gassed with 95% O2 and 5% CO2 (Po2 ˜550 mm Hg, pH ˜7.4) containing the monoamine oxidase inhibitor pargyline (1 mM). Following the 15-min stabilization period, fragments were incubated for an additional 20 min in oxygenated KHS in the absence or presence of pharmacological agents. […]

[4] = system: human right atrial tissue; conditions: as previously reported (Hatta et al. 1997); cited from earlier work

CC(C)C[C@H](O)[C@H](O)[C@H](CC1CCCCC1)NC(=O)[C@@H](CC(=O)N(CC(=O)N(C)CCc1ccccn1)CC1CCCCC1)Cc1csc(N)n1 [BILA 2157BS]
suppression of the enhancement in NE release elicited by ischemia ([1]; 100 nM): ~70%
effect on angiotensinogen-induced increase in ischemic NE release ([2]; 100 nM): prevented
decrease in NE release ([3]; 30 nM): ~60%

CNCCCN1c2ccccc2CCc2ccccc21 [DMI, desipramine hydrochloride]
inhibition at 0.3 µM ([1]; Homo sapiens, 70 min, 300 nM): ~50%
effect on ischemic NE release from atrial tissue [4]: inhibited

CCN(c1nc(N)c(C(=O)N=C(N)N)nc1Cl)C(C)C [EIPA, 5-(N-ethyl-N-isopropyl)-amiloride]
inhibition of ischemic NE release ([1]; 30 μM): ~50%

CC(C)CC(=O)N[C@H](C(=O)N[C@H](C(=O)N[C@@H](CC(C)C)[C@@H](O)CC(=O)N[C@@H](C)C(=O)N[C@@H](CC(C)C)[C@@H](O)CC(=O)O)C(C)C)C(C)C [pepstatin-A] (Isovaleryl-VV[Sta]A[Sta]-OH)
suppression of the enhancement in NE release elicited by ischemia ([1]; 30 μM): ~70%
decrease in NE release ([3]; 30 μM): ~70%

C[C@H](N[C@@H](CCc1ccccc1)C(=O)O)C(=O)N1CCC[C@H]1C(=O)O [enalaprilat, Enalaprilat]
reduction of the increase in NE release caused by ischemia ([1]; 3 μM): ~80%
effect on angiotensinogen-induced increase in ischemic NE release ([2]; 3 μM): prevented

B1: angiotensinogen: Human plasma angiotensinogen, renin substrate, purchased from Sigma-Aldrich (protein, UniProt P01019 25-476, looked up)
Angiotensinogen: DRVYIHPFHLVIHNESTCEQLAKANAGKPKDPTFIPAPIQAKTSPVDEKALQDQLVLVAAKLDTEDKLRAAMVGMLANFLGFRIYGMHSELWGVVHGATVLSPTAVFGTLASLYLGALDHTADRLQAILGVPWKDKNCTSRLDAHKVLSALQAVQGLLVAQGRADSQAQLLLSTVVGVFTAPGLHLKQPFVQGLALYTPVVLPRSLDFTELDVAAEKIDRFMQAVTGWKTGCSLMGASVDSTLAFNTYVHFQGKMKGFSLLAEPQEFWVDNSTSVSVPMLSGMGTFQHWSDIQDNFSVTQVPFTESACLLLIQPHYASDLDKVEGLTFQQNSLNWMKKLSPRTIHLTMPQLVLQGSYDLQDLLAQAELPAILHTELNLQKLSNDRIRVGEVLNSIFFELEADEREPTESTQQLNKPEVLEVTLNRPFLFAVYDQSATALHFLGRVANPLSTA
increase in ischemic NE release ([2]; 400 nM angiotensinogen, 70 min ischemia): ~70%
